What was measured:
[1] = test system: ovalbumin sensitized Dunkin Hartley guinea pigs; assay: Ovalbumin induced asthma model in guinea pigs, intra-tracheal dosing; type: in vivo, guinea pig; settings: for Percent inhibition of eosinophils: BAL 48 hours after challenge; for Airway conductance sGAW (AUC): 4 hours before ovalbumin challenge
Protocol: Healthy male Dunkin Hartley guinea pigs weighing between 300-400 gm were sensitized on day 0 with (5 mg) and on day 2 with (10 mg) of ovalbumin (Ova) and 10 mg of aluminum hydroxide gel given intra peritoneal (i.p.). Guinea pigs were challenged with 0.3% aerosolized ovalbumin on Day 21 following sensitization.
Actively sensitized male guinea pigs with free access to water, were fasted overnight, and used for the studies. Animals were assigned to one of the following groups during each experiment as per Table 2 below.
Guinea pigs were dosed intra-tracheally with Compound 52 or vehicle 4 hours before exposure to aerosolized ovalbumin challenge. The control group of animals received vehicle (Lactose powder—2 mg/animal, i.t.) only.
Broncho Alveolar Lavage (BAL) was performed at 48 hours after challenge with ovalbumin. Animals were anesthetized with an overdose of urethane, trachea was exposed and BAL was performed 5 times using 5 mL PBS. All aspirates of BAL were pooled and total number of cells determined using a hemocytometer. The BAL was centrifuged, and the cell pellet re-suspended in 50 μL guinea pig serum and used for preparation of smears. Slides were stained with Giemsa stain and a differential cell count of 500 cells based on standard morphology was performed manually.
The total number of eosinophils in each BAL sample was calculated using the formula:
[formula] Percent inhibition of eosinophils was calculated using the following formula: […]
The results for the bronchoconstriction part were calculated as percent (%) change in sGaw from saline base-line readings with saline taken just 1 minute before the antigen challenge and reported as peak change (mean±S.E.M.) for every 5 minutes for a total duration of 30 min after OA challenge. Area under the curve (AUC) was determined for each animal using GraphPad Prism. The percent (%) increase in AUC in the treated group relative to the vehicle group was calculated. Data was statistically analyzed using ANOVA and Dunnett's post hoc test.

[2] = test system: ovalbumin sensitized Brown Norway rats; assay: Ovalbumin challenge in Brown Norway rats, intra-tracheal dosing (Example 3); type: in vivo, rat; settings: i.t.
Protocol: Male Brown Norway rats were sensitized subcutaneously on day 0, 14 and 21 with 0.5 ml solution containing 20 μg/ml ovalbumin and 40 mg/ml aluminum hydroxide. Simultaneously animals were injected intraperitoneally (i.p.) with 0.25 ml of B. pertussis vaccine/rat containing 4×10^8 heat killed bacilli/ml. Rats were challenged with 1% aerosolized ovalbumin on Day 28 following sensitization.
Test compounds were triturated and volume was made up with Normal Saline (0.9% NaCl). Animals were administered Compound 52 intra-tracheally 1 hour before ovalbumin challenge. Animals were sacrificed 48 hours after ovalbumin challenge and BAL was performed as mentioned in Example 2. The pooled BAL was used to determined total number of cells using a hemocytometer. Further, cell differential study was performed according to Example 2.
The total number of eosinophils in each BAL sample was calculated using the formula: […]
Percent inhibition of eosinophils was calculated using the following formula: […]
(§1) The data was statistically evaluated by ANOVA followed by Dunnett's multiple comparisons test.

[3] = Pharmacokinetics in guinea pig upon intra-tracheal administration; type: in vivo; settings: 500 mcg i.t.; for AUC0-24 / Cmax: mean ± SD (N = 3); for Tmax: guinea pig, other: intra-tracheal, 500 ug
Protocol: Guinea pigs were dosed intra-tracheally with Compound 52 with lactose as a vehicle. At various time points, animals were sacrificed with an overdose of urethane, trachea was exposed and BAL was performed 5 times using 5 mL PBS. Lung tissue was collected and kept at −70° C. until analysis. The BAL was centrifuged, and the cell pellet was collected and kept at −70° C. until analysis.

human TRPV1 = human TRPV1 (Homo sapiens (Human), UniProt Q8NER1); assay: Radiometric calcium selectivity assay, CHO cells expressing human TRPV1 (capsaicin); type: cell-based; settings: read-out: IC50 values hTRPV1
human TRPV3 = human TRPV3 (Homo sapiens (Human), UniProt Q8NET8); assay: Radiometric calcium selectivity assay, CHO cells expressing human TRPV3 (2-aminoethoxydiphenyl borate); type: cell-based; settings: read-out: IC50 values hTRPV3
human TRPV4 = human TRPV4 (Homo sapiens (Human), UniProt Q9HBA0); assay: Radiometric calcium selectivity assay, CHO cells expressing human TRPV4 (4α-phorbol 12,13-didecanoate); type: cell-based; settings: read-out: IC50 values hTRPV4
human TRPM8 = human TRPM8 (Homo sapiens (Human), UniProt Q7Z2W7); assay: Radiometric calcium selectivity assay, CHO cells expressing human TRPM8 (icilin); type: cell-based; settings: read-out: IC50 values hTRPM8
[4] = test system: ovalbumin sensitized Brown Norway rats; assay: Ovalbumin asthma model in Brown Norway rats (Example 5); type: in vivo, rat; settings: i.t. 1 hour before ovalbumin challenge, BAL 48 hours; dose dependent
Protocol: Male BN rats were sensitized subcutaneously (s.c.) on day 0, 14 and 21 with 0.5 ml solution containing 20 μg/ml ovalbumin (Ova) and 40 mg/ml aluminum hydroxide. Simultaneously the animals were injected intraperitoneally (i.p.) with 0.25 ml of B. pertussis vaccine/rat containing 4×10^8 heat killed bacilli/ml. The rats were challenged with 1% aerosolized ovalbumin on Day 28 following sensitization.
Test compounds were triturated and volume was made up with Normal Saline (0.9% NaCl). Animals were administered TRPA1 antagonists (Compound 52, Compound 73, Compound 84, Compound 90 and Compound 92) intra-tracheally (i.t.) 1 hour and fluticasone 24 hours and 1 hour before ovalbumin challenge. Animals were sacrificed 48 hours after ovalbumin challenge.
BAL was performed at approximately 48 hours after ovalbumin challenge and the pooled BAL was used to determined total number of cells and for cell differential study (according to Example 2).
The total number of eosinophils in each BAL sample and % inhibition of eosinophils were calculated according to Example 3
as §1

[5] = test system: LPS exposed Brown Norway rats; assay: Aerosolized LPS induced airway inflammation in Brown Norway rats; type: in vivo, rat; settings: i.t. 4 hours before LPS; Compound 52 1000 μg/animal, Compound 90 2000 μg/animal; BAL 12 hours
Protocol: Male Brown Norway rats were exposed to aerosolized Lipopolysaccharide (LPS) (100 μg/ml) for 40 minutes at 1.8 bar pressure using a nebulizer (Hudson Respiratory Care Incorporated), phosphate buffered saline (PBS) control animals were exposed to hyrdroxylamine hydrochloride in PBS.
Test compounds were triturated and volume was made up with either distilled water or normal saline (0.9% NaCl). Animals were administered Compound 52 and Compound 90 intra-treacheally 4 hours before LPS aerosolized exposure. Animals were sacrificed 12 hours after aerosolized exposure. The control group of animals received only 2 mg Lactose/100 μl distilled water/animal intratracheally or normal saline 100 μl/animal intratracheally.
Broncho alveolar lavage (BAL) was performed at approximately 12 hours after aerosolized exposure. Animals were euthanized with an overdose of urethane, trachea was exposed and BAL was performed 5 times using 2 ml PBS. All aspirates of BAL were pooled and total number of cells determined using a hemocytometer. BALFwas centrifuged. […]
The total number of neutrophils in each BAL sample was calculated using the formula:
[formula] Percent inhibition of neutrophils was calculated using the following formula:
[formula] Data was statistically evaluated by ANOVA followed by Dunnett's multiple comparisons test. […]

Chain of human TRPV3 (Q8NET8 whole entry): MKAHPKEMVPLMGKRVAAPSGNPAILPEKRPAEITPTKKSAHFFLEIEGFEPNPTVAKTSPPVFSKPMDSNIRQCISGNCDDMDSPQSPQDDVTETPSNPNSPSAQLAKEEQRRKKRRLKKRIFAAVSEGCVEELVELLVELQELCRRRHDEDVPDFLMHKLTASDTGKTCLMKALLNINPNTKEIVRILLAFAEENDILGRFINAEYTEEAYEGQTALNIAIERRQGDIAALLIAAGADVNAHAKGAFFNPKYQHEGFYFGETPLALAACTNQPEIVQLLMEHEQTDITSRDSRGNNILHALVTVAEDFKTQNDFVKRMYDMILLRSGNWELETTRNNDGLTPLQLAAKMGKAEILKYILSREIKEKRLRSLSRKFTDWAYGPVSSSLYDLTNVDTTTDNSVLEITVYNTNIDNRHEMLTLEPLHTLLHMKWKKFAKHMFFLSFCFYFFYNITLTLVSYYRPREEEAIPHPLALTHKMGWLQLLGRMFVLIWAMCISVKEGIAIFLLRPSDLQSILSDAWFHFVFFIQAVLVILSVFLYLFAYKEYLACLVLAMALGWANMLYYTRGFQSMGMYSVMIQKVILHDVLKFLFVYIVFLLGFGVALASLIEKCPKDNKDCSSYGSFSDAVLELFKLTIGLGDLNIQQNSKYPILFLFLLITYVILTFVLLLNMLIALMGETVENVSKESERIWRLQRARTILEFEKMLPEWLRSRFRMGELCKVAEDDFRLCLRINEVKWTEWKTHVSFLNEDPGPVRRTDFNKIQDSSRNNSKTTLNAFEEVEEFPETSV
Chain of human TRPV4 (Q9HBA0 whole entry): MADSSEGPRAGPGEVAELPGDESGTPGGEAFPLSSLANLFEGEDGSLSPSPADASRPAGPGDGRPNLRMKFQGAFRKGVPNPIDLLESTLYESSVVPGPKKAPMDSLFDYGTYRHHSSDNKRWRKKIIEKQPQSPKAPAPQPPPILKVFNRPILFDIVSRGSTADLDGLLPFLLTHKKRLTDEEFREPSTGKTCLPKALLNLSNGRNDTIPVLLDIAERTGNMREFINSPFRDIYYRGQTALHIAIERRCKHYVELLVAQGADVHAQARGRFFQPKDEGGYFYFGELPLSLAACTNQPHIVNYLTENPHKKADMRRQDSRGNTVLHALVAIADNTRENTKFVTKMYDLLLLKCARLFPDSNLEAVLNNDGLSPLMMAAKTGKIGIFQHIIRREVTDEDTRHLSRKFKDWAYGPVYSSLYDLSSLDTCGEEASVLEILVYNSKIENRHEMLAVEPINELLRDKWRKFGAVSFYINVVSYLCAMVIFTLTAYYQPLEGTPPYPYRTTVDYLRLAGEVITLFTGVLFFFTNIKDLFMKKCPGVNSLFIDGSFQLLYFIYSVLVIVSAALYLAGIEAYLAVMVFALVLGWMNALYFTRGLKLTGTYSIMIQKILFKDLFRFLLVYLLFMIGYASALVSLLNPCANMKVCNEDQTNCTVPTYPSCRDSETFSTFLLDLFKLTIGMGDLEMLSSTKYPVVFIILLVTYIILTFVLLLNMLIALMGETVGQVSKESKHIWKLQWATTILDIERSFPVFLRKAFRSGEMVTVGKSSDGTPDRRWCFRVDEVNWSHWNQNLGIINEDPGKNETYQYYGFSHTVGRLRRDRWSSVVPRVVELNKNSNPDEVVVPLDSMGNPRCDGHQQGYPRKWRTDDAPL
Chain of human TRPV1 (Q8NER1 whole entry): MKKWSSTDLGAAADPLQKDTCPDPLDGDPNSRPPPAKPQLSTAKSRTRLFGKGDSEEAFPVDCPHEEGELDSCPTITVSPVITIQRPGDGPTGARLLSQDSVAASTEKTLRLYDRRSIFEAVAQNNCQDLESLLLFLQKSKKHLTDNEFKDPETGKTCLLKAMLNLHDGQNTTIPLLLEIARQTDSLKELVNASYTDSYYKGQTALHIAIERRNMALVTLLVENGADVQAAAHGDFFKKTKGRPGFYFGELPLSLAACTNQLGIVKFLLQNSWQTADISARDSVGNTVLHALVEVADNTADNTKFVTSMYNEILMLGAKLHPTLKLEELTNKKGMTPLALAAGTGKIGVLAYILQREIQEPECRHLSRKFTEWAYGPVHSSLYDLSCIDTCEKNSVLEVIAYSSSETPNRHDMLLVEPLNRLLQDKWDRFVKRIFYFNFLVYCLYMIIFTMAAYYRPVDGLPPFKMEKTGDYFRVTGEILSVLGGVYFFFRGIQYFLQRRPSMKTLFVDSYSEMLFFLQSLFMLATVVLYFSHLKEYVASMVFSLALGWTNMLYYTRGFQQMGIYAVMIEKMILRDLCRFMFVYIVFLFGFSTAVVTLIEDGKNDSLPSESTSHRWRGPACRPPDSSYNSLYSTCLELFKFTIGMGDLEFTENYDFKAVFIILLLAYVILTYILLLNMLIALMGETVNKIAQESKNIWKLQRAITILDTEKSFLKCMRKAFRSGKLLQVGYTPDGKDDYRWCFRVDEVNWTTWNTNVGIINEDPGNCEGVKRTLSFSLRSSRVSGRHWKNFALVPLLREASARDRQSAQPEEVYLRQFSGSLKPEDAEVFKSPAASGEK
Chain of human TRPM8 (Q7Z2W7 whole entry): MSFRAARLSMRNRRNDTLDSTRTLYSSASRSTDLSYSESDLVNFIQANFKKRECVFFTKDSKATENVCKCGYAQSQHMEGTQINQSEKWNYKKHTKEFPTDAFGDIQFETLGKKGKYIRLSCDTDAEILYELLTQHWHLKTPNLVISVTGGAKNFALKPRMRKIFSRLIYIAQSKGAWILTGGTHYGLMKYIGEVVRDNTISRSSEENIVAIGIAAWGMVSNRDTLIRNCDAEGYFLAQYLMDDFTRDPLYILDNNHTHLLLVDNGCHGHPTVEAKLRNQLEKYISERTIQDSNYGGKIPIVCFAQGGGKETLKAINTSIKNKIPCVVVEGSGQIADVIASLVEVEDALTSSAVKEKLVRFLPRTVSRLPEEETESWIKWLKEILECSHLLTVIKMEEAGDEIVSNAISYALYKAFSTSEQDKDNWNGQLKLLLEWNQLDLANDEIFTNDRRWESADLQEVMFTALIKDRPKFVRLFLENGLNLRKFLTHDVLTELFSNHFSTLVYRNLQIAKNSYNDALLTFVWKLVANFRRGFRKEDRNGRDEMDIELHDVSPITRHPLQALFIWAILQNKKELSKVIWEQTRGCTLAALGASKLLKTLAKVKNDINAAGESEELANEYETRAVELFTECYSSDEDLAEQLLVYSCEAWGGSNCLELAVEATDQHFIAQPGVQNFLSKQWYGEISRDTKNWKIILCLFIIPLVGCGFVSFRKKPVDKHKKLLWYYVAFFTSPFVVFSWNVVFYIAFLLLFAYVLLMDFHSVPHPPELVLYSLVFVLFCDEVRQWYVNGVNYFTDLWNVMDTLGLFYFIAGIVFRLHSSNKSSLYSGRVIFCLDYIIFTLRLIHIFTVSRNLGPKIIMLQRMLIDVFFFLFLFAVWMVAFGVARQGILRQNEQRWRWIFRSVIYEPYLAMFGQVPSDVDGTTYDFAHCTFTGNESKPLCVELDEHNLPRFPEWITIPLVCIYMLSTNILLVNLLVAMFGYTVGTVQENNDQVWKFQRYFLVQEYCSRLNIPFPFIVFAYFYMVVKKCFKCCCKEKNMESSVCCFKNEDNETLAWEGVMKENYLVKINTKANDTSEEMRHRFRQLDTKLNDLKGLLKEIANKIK

Which results are given for `Cn1c(=O)c2c(CC(=O)Nc3nc(-c4ccc(F)c(C(F)(F)F)c4F)cs3)csc2n(C)c1=O` [Compound 52]?
Percent inhibition of eosinophils ([1]; dose 125 μg/animal i.t.): 61%; Percent inhibition of eosinophils ([1]; dose 250 μg/animal i.t.): 87%; Percent inhibition of eosinophils ([1]; dose 500 μg/animal i.t.): 68%; Airway conductance sGAW (AUC) ([1]; dose 25 (table μg/kg; text μg/animal) i.t.): 1399; Percent improvement in airway conductance ([1]; dose 25 i.t.): 0%; Percent inhibition of eosinophils ([1]; dose 25 i.t.): 0%; Percent improvement in airway conductance ([1]; dose 50 i.t.): 7%; Airway conductance sGAW (AUC) ([1]; dose 50 i.t.): 1592; Percent inhibition of eosinophils ([1]; dose 50 i.t.): 0%; Percent improvement in airway conductance ([1]; dose 125 i.t.): 39%; Airway conductance sGAW (AUC) ([1]; dose 125 i.t.): 1943; Percent improvement in airway conductance ([1]; dose 250 i.t.): 45%; Airway conductance sGAW (AUC) ([1]; dose 250 i.t.): 2004; Percent improvement in airway conductance ([1]; dose 500 i.t.): 43%; Airway conductance sGAW (AUC) ([1]; dose 500 i.t.): 1987; inhibition of eosinophils ([1]; dose not stated for this figure): 75%; ED50, inhibition of pulmonary eosinophilia [2]: 213 µg; AUC0-24 ([3]; Cell Pellet (BAL)): 70390 ± 12071 ng · h/ml or g; Cmax ([3]; Cell Pellet (BAL)): 6726 ± 2049 ng/ml or g; AUC0-24 ([3]; Lung Tissue): 103786 ± 28285 ng · h/ml or g; Cmax ([3]; Lung Tissue): 4989 ± 2548 ng/ml or g; Tmax ([3]; Cell Pellet (BAL)): 0.25 h; Tmax ([3]; Lung Tissue): 8 h

For `COCCCOc1cccc(C2NC(=S)NC3=C2C(=O)c2ccccc23)c1` (stereo not drawn) [Compound 90], which IC50 (human TRPV1) is on record?
Its IC50 is over 10 µM.

And the IC50 (human TRPV3)?
Its IC50 is over 10 µM.

And the IC50 (human TRPV4)?
The IC50 was over 10 µM.

And the IC50 (human TRPM8)?
Its IC50 is over 10 µM.

And the pulmonary eosinophilia [4]?
The pulmonary eosinophilia was “significant inhibition”.

And the “neutrophils in BALF” value [5]?
The value was “significant inhibition”.

And the “total leukocytes in BALF” value [5]?
The value was “significant inhibition”.

— US9186360B2, “Treatment of respiratory disorders using TRPA1 antagonists” (GLENMARK PHARMACEUTICALS S.A., priority 2011, dated 2015)
